Laboratory results from paper PMC4515242, “ESR and X-ray Structure Investigations on the Binding and Mechanism of Inhibition of the Native State of Myeloperoxidase with Low Molecular Weight Fragments” (Applied Magnetic Resonance, 2015).

Columns and labels:
hMPO [1] = molecular target: T1, hMPO (Homo sapiens, UniProt P05164); assay: Alpha screen assay: inhibition of MPO-initiated nitration of the Apo-A1 peptide ([…]); type: biochemical; details: MPO 11.8 nM, pH 7.4, 45 min RT
T1 construct: purchased Biodesign A31804H
T1 sequence (P05164 49-745): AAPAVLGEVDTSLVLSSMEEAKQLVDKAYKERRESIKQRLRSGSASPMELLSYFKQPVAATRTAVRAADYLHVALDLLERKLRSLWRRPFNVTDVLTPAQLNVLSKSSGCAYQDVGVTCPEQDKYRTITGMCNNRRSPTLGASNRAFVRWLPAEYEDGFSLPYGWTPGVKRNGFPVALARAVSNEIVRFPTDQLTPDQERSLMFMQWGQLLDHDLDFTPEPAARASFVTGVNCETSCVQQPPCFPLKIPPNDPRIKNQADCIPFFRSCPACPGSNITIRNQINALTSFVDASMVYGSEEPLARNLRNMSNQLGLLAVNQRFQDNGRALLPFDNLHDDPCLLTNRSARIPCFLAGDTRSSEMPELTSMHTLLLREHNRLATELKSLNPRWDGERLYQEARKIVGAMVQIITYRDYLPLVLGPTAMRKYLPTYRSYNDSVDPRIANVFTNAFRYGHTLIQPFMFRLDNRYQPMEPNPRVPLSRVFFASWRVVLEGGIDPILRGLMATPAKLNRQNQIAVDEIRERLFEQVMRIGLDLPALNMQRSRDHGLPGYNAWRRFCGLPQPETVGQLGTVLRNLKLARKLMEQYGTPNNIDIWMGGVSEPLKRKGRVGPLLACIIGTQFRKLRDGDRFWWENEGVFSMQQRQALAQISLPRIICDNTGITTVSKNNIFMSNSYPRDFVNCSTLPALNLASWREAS
Method: In a typical experiment, MPO (11.8 nM final concentration) in 20 mM phosphate buffer pH 7.4, 10 % glycerol and 0.005 % gelatin (PB) is added to each well of a multi-well plate containing 20 μl PB ± compound (final concentration of DMSO = 0.9 %). The reaction is started by the addition of 20 μl PB containing 1.5 μM ApoAI peptide substrate, 300 μM diethylenetriaminepentaacetic acid (DTPA), 300 μM sodium nitrite, and 30 μM H2O2. The total reaction volume is 60 μl. The plates are incubated with agitation for 45 min at RT. The reaction is terminated with the addition of 20 μl of a stop solution containing 11.2 nM rabbit anti-nitrotyrosine antibody (final conc. of 2.8 nM), 100 μg/ml streptavidin donor beads, and 100 μg/ml protein A acceptor beads (final concentration of […]), FBS (1.6 % final concentration) in Superblock buffer. The plates are sealed, incubated in the dark for 1 h, and read on a Packard Fusion alpha plate reader.
Through a chloride independent pathway, MPO catalyzes the one electron oxidation of nitrite ions to nitrogen dioxide radicals which then […] protein amino acids like Tyrosine. We used the Apo-A1 peptide substrate ([…]) to follow the nitration of the Tyrosine (indicated by Y in the scheme below): MPO+H2O2→Compound INO2-+Compound I→NO2·+Compound II [drawing 1] Our initial experiments focused on identifying inhibitors that bind to the heme to inhibit the above catalytic action. A representative set of inhibitors is collected in Fig. 1a (strong binders, vide infra) and b (non binders, vide infra).

hMPO [2] = molecular target: T1, hMPO; assay: Reversible binding assay (filtration and ESR after washing); details: bound complex washed with buffer, then ESR at 4 K
Method: We performed the following two assays for independently confirming the reversibility of binding. In the filtration method, hMPO stock (1.5 mg/ml) is diluted to 5 μg/ml with 20 mM phosphate buffer pH 7.4, 10 % glycerol (no gelatin). 120 μl of this solution is mixed with an equal volume of the compounds at a concentration of 30 μM (final concentration […]), followed by mixing in the plate and incubation for 15 min. at room temperature. 120 μl aliquot of this solution is transferred into separate YM30 Micron filter units and centrifuged 6 min at 9000 rpm, followed by the addition of 300 μl of the buffer and further centrifugation for 12 min. at 9000 rpm. Wash and centrifuge cycles are repeated 2 more times with 300 μl buffer, each followed by 12 min. centrifugation steps. The protein left on the membrane is mixed with the PB buffer to a final volume of 120 μl and subjected to Alpha screen method as described before to probe the nitration of Apo A1 peptide substrate which is taken as a confirmation of the restoration of the catalytic activity of the protein.
In the ESR protocol, the methodology of Hori et al. was applied with some modifications.The protocol followed is similar to the binding assay except that a higher concentration of hMPO (9.2 μM final) is used. This is necessary as multiple washings followed by dilutions lead to considerable loss of the enzyme due to its retention on the membrane. After 5 min of incubation in the eppendorf at room temperature, the contents were transferred to an Amicon Ultra-4 tube (5 ml capacity) and filled with 4 ml of 0.1 M sodium acetate buffer (containing 50 mM NaCl) pH 6.0. Using spin conditions of 4000×g in a swinging bucket rotor at 20 °C, the samples are washed repeatedly (2×) followed with a final wash containing 1 ml of the sodium acetate buffer (chloride free) + 25 % n-propanol and then concentrated. The concentrated solution ca. 300 μl is transferred to ESR quartz tubes and measured at 4 K. A higher concentration of MPO in these reversible binding assays enabled a good ESR signal over noise from the washed (3X) sample.

| SMILES | IC50 (hMPO [1]) [nM] | reversibility of the binding (hMPO [2]) |
| --- | --- | --- |
| O=C(O)c1nn(-c2ccccc2)cc1O [LSN17948] | 520 | Reversible in its action |
| O=C(O)c1n[nH]c(-c2ccccc2)c1O [LSN87637] | 674 | Reversible in its action |
| O=C(O)c1nn(-c2cccc3ccccc23)cc1O [LSN2944556] | 669 | Reversible in its action |
